Laboratory results published in PubChem BioAssay (NCI).
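Method: 48-hour compound exposure of cells in 96-well plates, five concentrations, linear interpolation of endpoints. GI50 is the concentration that inhibits growth by half. TGI denotes the concentration required for complete inhibition of growth.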

What was measured:
Assay in all cases: growth of human tumour cells (NCI), 48 h
[1] = tested on: BT-549 breast
[2] = tested on: HT29 colon
[3] = tested on: OVCAR-5 ovarian
[4] = tested on: A498 renal
[5] = tested on: COLO 205 colon
[6] = tested on: SK-MEL-28 melanoma
[7] = tested on: HOP-92 NSCLC
[8] = tested on: LOX IMVI melanoma
[9] = tested on: NCI-H522 lung
[10] = tested on: SF-539 CNS

Row | Structure (SMILES) | GI50 [1] [µM] | TGI [1] [µM] | GI50 [2] [µM] | TGI [2] [µM] | GI50 [3] [µM] | TGI [3] [µM] | GI50 [4] [µM] | TGI [4] [µM] | GI50 [5] [µM] | TGI [5] [µM] | GI50 [6] [µM] | TGI [6] [µM] | GI50 [7] [µM] | TGI [7] [µM] | GI50 [8] [µM] | TGI [8] [µM] | GI50 [9] [µM] | TGI [9] [µM] | GI50 [10] [µM] | TGI [10] [µM]
1 | CCn1nc(C#Cc2c(C)ccc3c(Nc4ccc(Cl)cc4)nccc23)c2c(N)ncnc21 | 5.27 | > 100 | 2.32 | > 100 | 9.19 | > 100 | 2.54 | 8.65 | 2.36 | > 100 | 3.36 | > 100 | 1.79 | 9.06 | 1.81 | > 100 | 2.39 | 86.9 | – | –
2 | COc1cc(-c2nn(-c3cccc(NC(=O)NCCNC(=O)c4ccccc4)c3)cc2-c2ccncc2)ccc1Cl | 2.21 | 8.05 | 0.965 | 23.6 | 3.78 | > 100 | 4.72 | > 100 | – | – | 3.04 | > 100 | 2.63 | > 100 | 2.46 | > 100 | 1.79 | 7.37 | 0.859 | 7.44
3 | CCN(CC)CCCC(C)Nc1ccnc2cc(OC)ccc12 (stereo not given) | 18.7 | 37 | – | – | 21.2 | 50.2 | 35.3 | > 100 | 16.1 | 36.8 | – | – | 9.25 | 26.7 | 29.5 | > 100 | 17.9 | 37.4 | 19 | 34.4
4 | CNC(=S)N/N=C/CSC/C=N/NC(=S)NC | > 100 | > 100 | – | – | > 100 | > 100 | > 100 | > 100 | > 100 | > 100 | > 100 | > 100 | > 100 | > 100 | > 60.7 | > 100 | > 100 | > 100 | > 100 | > 100
